Results reported in patent publication US6737383B1, “Herbicidal oxadiazolidines” (priority 1999, dated 2004).

What was measured:
surinam grass = assay: Test B pre/postemergence surinam grass; assay type: in vivo, Brachiaria decumbens
Summary of the method: (§1)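 Response is a visual 0-to-10 score relative to untreated plants, where 0 means no effect and 10 means complete control, taken twelve to sixteen days after application. Treatments went onto soil at planting and onto foliage of 1- to 4-leaf plants, using a surfactant-containing non-phytotoxic solvent.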

duck salad = assay: Test B flood test duck salad; assay type: in vivo, Heteranthera limosa
Summary of the method: (§2)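 Flood test on plants grown to the 2-leaf stage; treated plants kept in greenhouse twelve to sixteen days, then visually rated against controls on a 0 (no effect) to 10 (complete control) scale.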

velvetleaf = assay: Test B pre/postemergence velvetleaf; assay type: in vivo, Abutilon theophrasti; details: for Plant response rating, Velvetleaf: scale of 0 to 10 where 0 is no effect and 10 is complete control
Summary of the method: as §1

sugar beet = assay: Test B pre/postemergence sugar beet; assay type: in vivo, Beta vulgaris; details: for Plant response rating, Sugarbeets: scale of 0 to 10 where 0 is no effect and 10 is complete control
Summary of the method: as §1

pigweed = assay: Test B pre/postemergence pigweed; assay type: in vivo, Amaranthus retroflexus; details: for Plant response rating, Redroot pigweed: scale of 0 to 10 where 0 is no effect and 10 is complete control
Summary of the method: as §1

corn = assay: Test B pre/postemergence corn; assay type: in vivo, Zea mays
Summary of the method: as §1

soybean = assay: Test B pre/postemergence soybean; assay type: in vivo, Glycine max; details: for Plant response rating, Soybean: scale of 0 to 10 where 0 is no effect and 10 is complete control
Summary of the method: as §1

rape = assay: Test B pre/postemergence rape; assay type: in vivo, Brassica napus; details: for Plant response rating, Rape: scale of 0 to 10 where 0 is no effect and 10 is complete control
Summary of the method: as §1

crabgrass = assay: Test B pre/postemergence crabgrass; assay type: in vivo, Digitaria sanguinalis
Summary of the method: as §1

wheat = assay: Test B pre/postemergence wheat; assay type: in vivo, Triticum aestivum; details: for Plant response rating, Wheat: scale of 0 to 10 where 0 is no effect and 10 is complete control
Summary of the method: as §1

purple nutsedge = assay: Test B pre/postemergence purple nutsedge; assay type: in vivo, Cyperus rotundus; details: for Plant response rating, Nutsedge: scale of 0 to 10 where 0 is no effect and 10 is complete control
Summary of the method: as §1

wild oat = assay: Test B pre/postemergence wild oat; assay type: in vivo, Avena fatua; details: for Plant response rating, Wild oats: scale of 0 to 10 where 0 is no effect and 10 is complete control
Summary of the method: as §1

rice = assay: Test B flood test rice; assay type: in vivo, Oryza sativa
Summary of the method: as §2

blackgrass = assay: Test B pre/postemergence blackgrass; assay type: in vivo, Alopecurus myosuroides
Summary of the method: as §1

smallflower flatsedge = assay: Test B flood test smallflower flatsedge; assay type: in vivo, Cyperus difformis
Summary of the method: as §2

[1] = Postemergence, Rate 500 g/ha, scale of 0 to 10 where 0 is no effect and 10 is complete control
[2] = Preemergence, Rate 62 g/ha, scale of 0 to 10 where 0 is no effect and 10 is complete control
[3] = Preemergence, Rate 125 g/ha, scale of 0 to 10 where 0 is no effect and 10 is complete control
[4] = Preemergence, Rate 250 g/ha, scale 0 to 10, 0 is no effect, 10 is complete control
[5] = Preemergence, Rate 500 g/ha, scale 0 to 10, 0 is no effect, 10 is complete control
[6] = Rate 62 g/ha, Postemergence, scale 0 to 10, 0 no effect, 10 complete control
[7] = Rate 125 g/ha, Postemergence, scale 0 to 10, 0 is no effect, 10 is complete control
[8] = Rate 62 g/ha, flood test species, Pre-emergence, visual evaluation after twelve to sixteen days
[9] = Rate 125 g/ha, under heading Pre-emergence, flood test species, visual evaluation after twelve to sixteen days
[10] = Rate 250 g/ha, Pre-emergence (flood test species), scale 0 to 10, 0 is no effect, 10 is complete control
[11] = Rate 500 g/ha, Pre-emergence, flood test species, scale 0 to 10 (0 no effect, 10 complete control)
[12] = Postemergence, Rate 250 g/ha, scale 0 to 10

With `CC(C)N(C(=O)n1oc(=O)n(C(C)CCl)c1=O)c1ccc(Cl)cc1` (stereo not drawn) [Compound 456] the “B. signalgrass plant response rating” value (surinam grass; Postemergence, Rate 250 g/ha, scale 0 to 10, 0 no effect, 10 complete control) was 0, the “B. signalgrass plant response rating” value (surinam grass; [1]) was 2 and the “Plant response rating, B. signalgrass” value (surinam grass; [2]) was 0. For the same compound, the “Plant response rating, B. signalgrass” value (surinam grass; [3]) was 0, the “B. signalgrass plant response rating” value (surinam grass; [4]) was 0 and the “B. signalgrass plant response rating” value (surinam grass; [5]) was 2. The “B. signalgrass plant response rating” value (surinam grass; [6]) was 0, the “B. signalgrass plant response rating” value (surinam grass; [7]) was 0 and the “Plant response rating, Ducksalad (0 to 10 scale, 0 is no effect, 10 is complete control)” value (duck salad; [8]) was 0. The “Ducksalad plant response rating (0 to 10 scale, 0 is no effect, 10 is complete control)” value (duck salad; [9]) was 0, the “Ducksalad plant response rating” value (duck salad; [10]) was 0 and the “Ducksalad plant response rating” value (duck salad; [11]) was 0. For the same compound, the “Velvetleaf plant response rating” value (velvetleaf; [12]) was 0, the “Plant response rating, Velvetleaf” value (velvetleaf; Preemergence, Rate 62 g/ha) was 0 and the “Plant response rating, Velvetleaf” value (velvetleaf; Preemergence, Rate 125 g/ha) was 0. For the same compound, the “Velvetleaf plant response rating” value (velvetleaf; [4]) was 1, the “Velvetleaf plant response rating” value (velvetleaf; [5]) was 2 and the “Velvetleaf plant response rating” value (velvetleaf; [6]) was 0. For the same compound, the “Velvetleaf plant response rating” value (velvetleaf; [7]) was 0, the “Sugarbeets plant response rating” value (sugar beet; [12]) was 0 and the “Plant response rating, Sugarbeets” value (sugar beet; Preemergence, Rate 62 g/ha) was 0. For the same compound, the “Plant response rating, Sugarbeets” value (sugar beet; Preemergence, Rate 125 g/ha) was 2, the “Sugarbeets plant response rating” value (sugar beet; [4]) was 2 and the “Sugarbeets plant response rating” value (sugar beet; [5]) was 3. The “Sugarbeets plant response rating” value (sugar beet; [6]) was 0, the “Sugarbeets plant response rating” value (sugar beet; [7]) was 0 and the “Redroot pigweed plant response rating” value (pigweed; [12]) was 3. The “Plant response rating, Redroot pigweed” value (pigweed; Preemergence, Rate 62 g/ha) was 0, the “Plant response rating, Redroot pigweed” value (pigweed; Preemergence, Rate 125 g/ha) was 2 and the “Redroot pigweed plant response rating” value (pigweed; [4]) was 3. For the same compound, the “Redroot pigweed plant response rating” value (pigweed; [5]) was 5, the “Redroot pigweed plant response rating” value (pigweed; [6]) was 0 and the “Redroot pigweed plant response rating” value (pigweed; [7]) was 0. The “Corn plant response rating” value (corn; [12]) was 0, the “Corn plant response rating” value (corn; [1]) was 0 and the “Plant response rating, Corn” value (corn; [2]) was 0. For the same compound, the “Plant response rating, Corn” value (corn; [3]) was 0, the “Corn plant response rating” value (corn; [4]) was 0 and the “Corn plant response rating” value (corn; [5]) was 0. The “Corn plant response rating” value (corn; [6]) was 0, the “Corn plant response rating” value (corn; [7]) was 0 and the “Soybean plant response rating” value (soybean; [12]) was 2. For the same compound, the “Plant response rating, Soybean” value (soybean; Preemergence, Rate 62 g/ha) was 0, the “Plant response rating, Soybean” value (soybean; Preemergence, Rate 125 g/ha) was 0 and the “Soybean plant response rating” value (soybean; [4]) was 0. The “Soybean plant response rating” value (soybean; [5]) was 0, the “Soybean plant response rating” value (soybean; [6]) was 1 and the “Soybean plant response rating” value (soybean; [7]) was 3. For the same compound, the “Rape plant response rating” value (rape; [12]) was 0, the “Plant response rating, Rape” value (rape; Preemergence, Rate 62 g/ha) was 0 and the “Plant response rating, Rape” value (rape; Preemergence, Rate 125 g/ha) was 0. For the same compound, the “Rape plant response rating” value (rape; [4]) was 0, the “Rape plant response rating” value (rape; [5]) was 0 and the “Rape plant response rating” value (rape; [6]) was 0. The “Rape plant response rating” value (rape; [7]) was 0, the “Crabgrass plant response rating” value (crabgrass; [12]) was 4 and the “Crabgrass plant response rating” value (crabgrass; [1]) was 7. For the same compound, the “Plant response rating, Crabgrass” value (crabgrass; [2]) was 6, the “Plant response rating, Crabgrass” value (crabgrass; [3]) was 6 and the “Crabgrass plant response rating” value (crabgrass; [4]) was 8. For the same compound, the “Crabgrass plant response rating” value (crabgrass; [5]) was 9, the “Crabgrass plant response rating” value (crabgrass; [6]) was 4 and the “Wheat plant response rating” value (wheat; [12]) was 0. For the same compound, the “Plant response rating, Wheat” value (wheat; Preemergence, Rate 62 g/ha) was 0, the “Plant response rating, Wheat” value (wheat; Preemergence, Rate 125 g/ha) was 0 and the “Wheat plant response rating” value (wheat; [4]) was 0. For the same compound, the “Wheat plant response rating” value (wheat; [5]) was 0, the “Wheat plant response rating” value (wheat; [6]) was 0 and the “Wheat plant response rating” value (wheat; [7]) was 0. The “Nutsedge plant response rating” value (purple nutsedge; [12]) was 0, the “Plant response rating, Nutsedge” value (purple nutsedge; Preemergence, Rate 62 g/ha) was 0 and the “Plant response rating, Nutsedge” value (purple nutsedge; Preemergence, Rate 125 g/ha) was 0. For the same compound, the “Nutsedge plant response rating” value (purple nutsedge; [4]) was 0, the “Nutsedge plant response rating” value (purple nutsedge; [5]) was 0 and the “Nutsedge plant response rating” value (purple nutsedge; [6]) was 0. The “Nutsedge plant response rating” value (purple nutsedge; [7]) was 0, the “Wild oats plant response rating” value (wild oat; [12]) was 0 and the “Plant response rating, Wild oats” value (wild oat; Preemergence, Rate 62 g/ha) was 0. For the same compound, the “Plant response rating, Wild oats” value (wild oat; Preemergence, Rate 125 g/ha) was 0, the “Wild oats plant response rating” value (wild oat; [4]) was 2 and the “Wild oats plant response rating” value (wild oat; [5]) was 3. For the same compound, the “Wild oats plant response rating” value (wild oat; [6]) was 0, the “Wild oats plant response rating” value (wild oat; [7]) was 0 and the “Plant response rating, Rice (0 to 10 scale, 0 is no effect, 10 is complete control)” value (rice; [8]) was 0. For the same compound, the “Rice plant response rating (0 to 10 scale, 0 is no effect, 10 is complete control)” value (rice; [9]) was 0, the “Rice plant response rating” value (rice; [10]) was 0 and the “Rice plant response rating” value (rice; [11]) was 0. The “Blackgrass plant response rating” value (blackgrass; [12]) was 4, the “Blackgrass plant response rating” value (blackgrass; [1]) was 8 and the “Plant response rating, Blackgrass” value (blackgrass; [2]) was 0. For the same compound, the “Plant response rating, Blackgrass” value (blackgrass; [3]) was 2, the “Blackgrass plant response rating” value (blackgrass; [4]) was 3 and the “Blackgrass plant response rating” value (blackgrass; [5]) was 6. For the same compound, the “Blackgrass plant response rating” value (blackgrass; [6]) was 4, the “Blackgrass plant response rating” value (blackgrass; [7]) was 4 and the “Plant response rating, S. Flatsedge (0 to 10 scale, 0 is no effect, 10 is complete control)” value (smallflower flatsedge; [8]) was 0. For the same compound, the “S. Flatsedge plant response rating (0 to 10 scale, 0 is no effect, 10 is complete control)” value (smallflower flatsedge; [9]) was 0, the “S. Flatsedge plant response rating” value (smallflower flatsedge; [10]) was 0 and the “S. Flatsedge plant response rating” value (smallflower flatsedge; [11]) was 0.
